# Experimental data reported in patent US11685741B2, “Fluorescent probes” (University of Massachusetts, priority 2017, dated 2023).
# Columns and labels:
# [1] = system: primary human fibroblast cells (ws1); test: Confocal imaging of Fe2+ with Rh6GD in ws1 cells; type: cell-based
# Protocol: Human primary fibroblast ws1 cells were grown at 37° C. in a humid atmosphere of 5% CO2 atmosphere in eagle's minimum essential medium (EMEM, ATCC) supplemented with 10% fetal bovine serum (FBS, ATCC). Cultures were divided into 1:2 every 48 h to an approximate cell density of 1.21 million cells/ml and used for experiments after 24 h.
# A Zeiss LSM 710 laser-scanning confocal microscope system was used for cell imaging experiments. 40× oil-immersion objective lens were used to perform all the experiments. For imaging with the Rh6GD sensor, excitation wavelength of the laser was 543 nm and emissions were collected over the range 545-625 nm. For images with MitoTracker Green FM, LysoTracker Deep Red, excitation wavelengths recommended by the manufacturer were 488 nm for MitoTracker, 633 nm for LysoTracker. Emissions were integrated at 492-535 nm (MitoTracker), 650-800 nm (LysoTracker), respectively.
# Ws1 cells, at an approximately density of 1.2 million/ml in complete EMEM medium, were incubated with 100 μM ferrous ammonium sulfate (FAS, Fe (NH4)2(SO4)2 from a 10 mM stock solution) for overnight at 37° C. in a humid atmosphere of 5% CO2 and then the cells were washed with fresh EMEM medium to remove excess Fe^2+. Then cells were incubated with Rh6GD (10 μM, from 500 μM stock solution in DMF) at 37° C. for 30 min and then cells were washed with EMEM media and then imaged. In addition, some cells were treated firstly with 100 μM Fe^2+ overnight and then the cells were washed with fresh EMEM medium. For chelation experiments, Fe^2+-loaded cells or untreated cells were incubated with 1 mM 2,2′-bipyridyl (Bpy) at 37° C. for 30 min, then sensor was added followed by washing with the media, and then imaging was done. Controls were imaged without incubation with Fe^2+ or 2,2′-bipyridyl.
# The ability of Rh6GD to detect Fe^2+ in primary human fibroblast cells (ws1) was investigated by using confocal microscopy. […] For Fe^2+ repleting conditions, live ws1 cells were incubated with 100 μM of ferrous ammonium sulfate (Fe (NH4)2(SO4)2) at 37° C. for overnight followed by washing with EMEM medium to remove excess Fe^2+ and then 10 μM of Rh6GD was added to the culture media and was incubated at 37° C. for 30 min. […] This fluorescent intensity is almost the same as that of cells without Fe^2+ or Bpy treatment (FIG. 34B).
# To explore this, the distribution of exchangeable Fe^2+ pools in live ws1 cells were further investigated using Rh6GD, together with colocalization experiments using other dyes such as MitoTracker Green FM (a green fluorescent dye which localizes to mitochondria in live cells regardless of mitochondrial membrane potential) and LysoTracker Deep Red (a fluorescent dye that stains acidic compartments such as endosomes and lysosomes in live cells). […]
# [2] = Binding studies of sensor with Fe3+ (Job's plot, titration, EDTA reversibility)
# Protocol: Job's method and UV-vis spectra were applied to study the binding stoichiometry between Rh-PK and Fe^3+ and monitored by the absorbance at 555 nm. […] The binding constant of this complex was calculated following a method reported previously (G. E. Tumambac, et al., Tetrahedron 2004, 60, 11293-11297), using absorption values at […] by the equations described below, and was determined to be 1.54×10^7 […].
# The equations below was used to calculate the binding constants with stoichiometry of 1:1. L+S↔LS where L=sensor, S=Fe3+ and LS=sensor-Fe^3+ complex. The apparent binding constant is given by
# [formula] Fe is the fraction of L that formed a complex, [LS]e is concentration at equilibrium, [L]0 is the initial concentration. Au, Am, and Ac are the absorbances of solutions of L (before any Fe^3+ was added), during the titration and at saturation, respectively. The concentration of free Fe^3+ at equilibrium, [S]e, is found with the following identity. [S]e=[S]o−[LS]e=[S]o−Fc[L]o The apparent binding constant K can then be calculated from
# Reversibility experiments were carried out by adding EDTA to the complex in ACN/Tris-HCl buffer (10 mM, pH 7.3, v/v 3:1). […]
# The stoichiometry of RhHPA-Fe^3+ was measured using Job's plot and mole ratio plots methods. B. Valeur, Molecular Fluorescence: Principles and Applications, Wiley-VCH. […] To determine the binding constant of chemosensor, a fluorescence titration of different amounts of Fe^3+ into the acetonitrile solution of sensor was carried out. […] The determination of the binding constant of RhHPA was calculated using the following equation: F−Fmin=[…](Fmax−Fmin)/Kd where F is the observed fluorescence, Fmax is the maximum fluorescence for the RhHPA-Fe^3+ complex at concentration of the equal reacted between sensor and metal cation, Fmin is the fluorescence intensity for occurring RhHPA-Fe^3+.
# Absorption enhancement observation at 558 nm was plotted against the molar value of the [Fe^3+]/[Fe^3+]+RhHPA and [Fe^3+]/RhHPA. […] Binding constant of fluorescent sensor “RhHPA” was calculated and it was found as K=1.27×10^7 M^−1. […]
"binding constant ([2]; 1:1 Fe^3+-Rh-PK complex, from absorption titration)","apparent binding constant ([2]; 1:1 sensor-Fe^3+ complex, ACN/Tris-HCl buffer pH 7.3)",Structure (SMILES),fluorescence of cells with sensor only ([1]; 10 μM Rh6GD),"fluorescence of cells treated with Fe^2+ then Bpy ([1]; 100 μM Fe^2+ overnight, Bpy, 10 μM Rh6GD, versus Fe^2+ supplement)","fluorescence of Fe^2+-treated cells versus unsupplemented ([1]; 100 μM ferrous ammonium sulfate overnight, then 10 μM Rh6GD 30 min)","fluorescence of Bpy-treated cells ([1]; Bpy, then 10 μM Rh6GD, versus sensor only)"
,,"CCNc1cc2c(cc1C)C1(c3cc(C)c(NCC)cc3O2)c2ccccc2C(=O)N1/N=C/C=C/c1ccc(N(C)C)cc1 [Rh6GD, 2-(((1E,2E)-3-(4-(dimethylamino)phenyl)allylidene)amino)-3′,6′-bis(ethylamino)-2′,7′-dimethylspiro[isoindoline-1,9′-xanthen]-3-one]",weak fluorescence,marked decrease in fluorescent intensity,significant increase in fluorescent signals,significantly decrease in fluorescence signal
1.54e+07 M⁻¹,1.54e+07 M⁻¹,"CCN(CC)c1ccc2c(c1)Oc1cc(N(CC)CC)ccc1C21c2ccccc2C(=O)N1CC/N=C(\C)c1cccc(C(C)=O)n1 [Rh-PK, (E)-2-(2-((1-(6-acetylpyridin-2-yl)ethylidene)amino)ethyl)-3′,6′-bis(diethylamino)spiro[isoindoline-1,9′-xanthen]-3-one]",,,,
